Test results: patent US11247976B2, “Synthetic ligands that modulate the activity of the RhlR quorum sensing receptor” (Wisconsin Alumni Research Foundation, priority 2016, dated 2022)
Entries after “also recorded” stand apart in the source; their conditions may differ.

Tests used:
[1] = Hydrolytic stability in buffers of varying pH by HPLC; assay type: physicochemical; settings: room temperature
Protocol: To assess the relative stability of the thiolactone and homoserine lactone moieties, stability studies were performed as reported previously,^53 with the following changes. Compounds RN22 and E22 (50 μM) were dissolved in either 1 mM 2-(N-morpholino)-ethanesulfonic acid (MES) buffer at pH 6, or 1 mM tris(hydroxymethyl)-aminomethane (TRIS) buffer at pH 7, pH 8, or pH 9. Solutions were placed static at room temperature, and 150 μL aliquots were taken every two hours for eight hours, then again at 24 hours. Samples were immediately separated via HPLC, and the area under the curve (AUC) at 220 nm was calculated and compared to the area at t=0. […] Degradation of both compounds to the hydrolysis product was confirmed via mass spectrometry of the resulting byproduct peak.
P. aeruginosa media is observed to become more alkaline over time, making the hydrolytic instability of the homoserine lactone head group a concern in developing AHL-type modulators for use in the wild-type organism. […] To evaluate their stability in a more direct assay, the stability of thiolactone RN22 relative to its lactone homolog E22 was monitored over time and at varying pH values using HPLC. The amount of compound RN22 remaining over 24 h was compared to E22. […] Degradation products were confirmed to be the hydrolyzed lactone head groups via mass spectroscopy.

[2] = target: T1, RhlR (Pseudomonas aeruginosa, UniProt P54292); assay: P. aeruginosa RhlR reporter antagonism assay vs 10 μM BHL (PAO-JP2/prhlI-LVAgfp); assay type: cell-based
T1 construct: expressed in transfected cells; host or cells: E. coli JLD271 (ΔsdiA) with pJN105R2 (arabinose-induced) and pSC11-rhlI*
Protocol: FIGS. 10A and B illustrate exemplary dose-response curves for RhlR antagonism in the E. coli JLD271/pJN105R2/pSC11-rhlI* reporter strain vs. 10 μM BHL (FIG. 10A) and in the P. aeruginosa PAO-JP2/prhlI-LVAgfp reporter strain vs. 10 μM BHL (FIG. 10B).
(§1) To evaluate the RhlR-modulatory activities of selected compounds in P. aeruginosa, the ΔlasIrhlI strain PAO-JP2 harboring plasmid prhlI-LVAgfp was used as previously reported.^38 Briefly, a subculture was prepared by diluting an overnight culture 1:100 in fresh LB and was grown to OD600=0.3. […] Subculture was treated with 100 nM OdDHL (to induce native expression of RhlR) by adding the appropriate amount of OdDHL stock solution in DMSO. The subculture was then dispensed ([…] aliquots) into each synthetic compound-containing well of the microtiter plate.
(§2) Plates were incubated at 37° C. for 6 h, and GFP production was monitored by using a Synergy 2 plate reader (λex=500 nm, λem=540 nm; BioTek, Winooski, Vt.) and quantified with Gen5 1.05 software (BioTek). The final OD600 for each well was measured to normalize GFP production to cell density. All synthetic compounds were tested in triplicate, and three separate trials were performed with unique cultures. Agonism dose-response analyses were performed by testing compounds over a range of concentrations with the RhlR reporter.

[3] = target: T1, RhlR; assay: E. coli RhlR reporter antagonism assay vs 10 μM BHL (JLD271/pJN105R2/pSC11-rhlI*); assay type: cell-based, P. aeruginosa; settings: for Maximum Inhibition (%): E. coli reporter, relative to activation of 10 μM BHL alone
Protocol: (§3) All media and reagents for bacterial culture were purchased from commercial sources. Bacteria were cultured in Luria-Bertani broth (LB) at 37° C. with shaking at 200 rpm unless otherwise noted. The bacterial reporter strains used for this study were (i) the heterologous E. coli strain JLD271 (ΔsdiA) harboring the RhlR expression plasmid pJN105R2 and the rhlI-lacZ transcriptional fusion reporter pSC11-rhlI*, (ii) the heterologous E. coli strain JLD271 (ΔsdiA) harboring the LasR expression plasmid pJN105L and the […] transcriptional fusion reporter pSC11, and (iii) the P. aeruginosa strain PAO-JP2 (ΔlasrhlI) harboring the rhlI-gfp transcriptional fusion reporter prhlI-LVAgfp. Reporter strains JLD271/pJN105R2/pSC11-rhlI* and JLD271/pJN105L/pSC11 were grown in LB containing 100 μg/mL ampicillin and 10 μg/mL gentamicin. Freezer stocks of bacterial strains were maintained at −80° C. in 1:1 LB:50% glycerol.
To evaluate the modulatory activities of library compounds on RhlR and LasR using E. coli reporters, the strains JLD271/pJN105R2/pSC11-rhlI* and JLD271/pJN105L/pSC11 were used, respectively, as previously described.^38, 51 The following modifications were used in the RhlR agonism reporter assay, non-native compounds (10 μM or 1 mM) were compared to 1 mM BHL as the positive control. Briefly, a subculture was prepared by diluting an overnight culture 1:10 with fresh media containing 100 μg/mL ampicillin and 10 μg/mL gentamicin, and was incubated until it had grown to OD600=0.45. In all assays, L-arabinose was added to a final concentration of 4 mg/mL to induce RhlR expression. For RhlR agonism assays, activities of test compounds were measured relative to 1 mM BHL (the concentration required to induce a maximal level of RhlR activity). […] Activity was measured relative to 10 μM BHL. Inhibition was calculated by subtracting 100% from the relative activity value. Thus, 0% inhibition mimics represents no competitive displacement of 10 μM BHL by a test compound. In all assays, modifications were made to the standard Miller assay protocol to accommodate the use of the chlorophenol red-β-D-galactopyranoside (CPRG) β-galactosidase substrate. After cell lysis, 150 μL of the aqueous layer was transferred from each well of a solvent-resistant 96-well microtiter plate to the wells of a new clear, flat-bottom 96-well microtiter plate. CPRG (4 mg/mL in phosphate-buffered saline) was added to each well in 25 μL volumes. Plates were incubated at 30° C. until the positive control wells developed a red color (approximately 30 min). The amount of processed CPRG substrate was assessed by measuring the absorbance of each well at 570 nm. Enzymatic activity was calculated using the following equation: adjusted Miller units=1000·Abs570/(OD600·t·V),
(§4) where t is the incubation time of substrate with lysate and V is the volume of culture lysed.
The RhlR-modulatory activity of the J library compounds was assessed in a heterologous reporter strain (E. coli JLD271 harboring plasmids pJN105R2 and pSC11-rhlI*) in order to isolate the RhlR receptor from upstream QS regulation (e.g. regulation by LasR). Thus, the extent to which compounds were directly modulating RhlR could be determined. These assays were performed by incubating compound-treated, mid-log phase E. coli reporter cells in 96-well microtiter plates, followed by Miller assay evaluation of ß-galactosidase activity.
RhlR agonism and antagonism screens of each compound were performed initially at 10 μM.

[4] = target: T1, RhlR; assay: P. aeruginosa RhlR reporter agonism assay (PAO-JP2/prhlI-LVAgfp); assay type: cell-based; settings: P. aeruginosa reporter compared with E. coli reporter
Protocol: as §3, §1, §2
Library compounds J18 and J24, as well as controls BHL and S4, were evaluated for potency in the native genetic background of RhlR by using the P. aeruginosa strain PAO-JP2 (ΔlasIrhlI) harboring the RhlR reporter plasmid prhlI-LVAgfp (Table 3). Because the production of RhlR is dependent on LasR (in LB medium), all assays were performed in the presence of 100 nM OdDHL, enabling immediate transcription of RhlR via LasR activation. […] All compounds also retained similar potencies when screened in the P. aeruginosa background.

[5] = target: T1, RhlR; assay: E. coli RhlR reporter agonism assay (JLD271/pJN105R2/pSC11-rhlI*); assay type: cell-based, P. aeruginosa; settings: compound at 10 μM; RhlR activity relative to 1 mM BHL; E. coli reporter
Protocol: as §3
To evaluate the modulatory activities of library compounds on RhlR and LasR using E. coli reporters, the strains JLD271/pJN105R2/pSC11-rhlI* and JLD271/pJN105L/pSC11 were used, respectively, as previously described.^38, 51 The following modifications were used in the RhlR agonism reporter assay, non-native compounds (10 μM or 1 mM) were compared to 1 mM BHL as the positive control. Briefly, a subculture was prepared by diluting an overnight culture 1:10 with fresh media containing 100 μg/mL ampicillin and 10 μg/mL gentamicin, and was incubated until it had grown to OD600=0.45. In all assays, L-arabinose was added to a final concentration of 4 mg/mL to induce RhlR expression. For RhlR agonism assays, activities of test compounds were measured relative to 1 mM BHL (the concentration required to induce a maximal level of RhlR activity). For RhlR antagonism assays, test compounds were competed against a concentration of BHL approximately equal to its EC50 value (10 μM). Activity was measured relative to 10 μM BHL. Inhibition was calculated by subtracting 100% from the relative activity value. Thus, 0% inhibition mimics represents no competitive displacement of 10 μM BHL by a test compound. In all assays, modifications were made to the standard Miller assay protocol to accommodate the use of the chlorophenol red-β-D-galactopyranoside (CPRG) β-galactosidase substrate. After cell lysis, 150 μL of the aqueous layer was transferred from each well of a solvent-resistant 96-well microtiter plate to the wells of a new clear, flat-bottom 96-well microtiter plate. CPRG (4 mg/mL in phosphate-buffered saline) was added to each well in 25 μL volumes. Plates were incubated at 30° C. until the positive control wells developed a red color (approximately 30 min). The amount of processed CPRG substrate was assessed by measuring the absorbance of each well at 570 nm. Enzymatic activity was calculated using the following equation: adjusted Miller units=1000·Abs570/(OD600·t·V),
as §4
Because LuxR-type receptors are often unstable in solution, preventing the use of in vitro assays to directly assess small molecule agonism and antagonism, reporter gene assays represent a standard method for screening small-molecule libraries for LuxR-type receptor modulation. Previously reported strains for this purpose were used in the current study.^38 Synthetic N-butanoyl L-homoserine lactone (BHL), the native ligand of RhlR, was used as the positive control for receptor activation. Commonly, agonists are measured relative to maximum possible receptor activation within a particular assay medium;^40 because the dose-response curve of BHL is distinctly shallow in these RhlR reporters, a high concentration of BHL is required to maximally activate RhlR. In this study, activation of compounds was measured relative to that elicited by 1 mM BHL (the concentration of BHL used causes no aberrant growth effects in the reporter strain). […]

T1 sequence (P54292 whole entry): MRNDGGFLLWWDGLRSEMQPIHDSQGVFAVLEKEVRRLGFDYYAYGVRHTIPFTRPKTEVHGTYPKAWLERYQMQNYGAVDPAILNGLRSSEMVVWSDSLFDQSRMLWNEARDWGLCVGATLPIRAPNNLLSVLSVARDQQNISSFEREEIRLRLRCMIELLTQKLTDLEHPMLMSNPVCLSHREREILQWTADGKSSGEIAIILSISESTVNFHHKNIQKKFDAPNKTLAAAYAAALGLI

Structure (SMILES) | half-life at 50 μM ([1]; pH 6, 1 mM MES buffer) | half-life at 50 μM ([1]; pH 7, 1 mM TRIS buffer) | half-life at 50 μM ([1]; pH 8, 1 mM TRIS buffer) | half-life at 50 μM ([1]; pH 9, 1 mM TRIS buffer) | IC50 [2] | Maximum Inhibition (%) ([2]; P. aeruginosa reporter, relative to activation of 10 μM BHL alone) | fold change of IC50 from E. coli to P. aeruginosa reporter ([2]; vs 10 μM BHL) | increase of maximum inhibition from E. coli to P. aeruginosa reporter ([2]; vs 10 μM BHL) | IC50 [3] | Maximum Inhibition (%) [3] | RhlR agonist potency in words [4] | RhlR antagonist activity in words ([3]; E. coli reporter vs 10 μM BHL) | inhibition at 10 µM ([3]; read-out: % inhibition (10 μM), compound at 10 μM in the presence of 10 μM BHL, negative = agonism stronger than 10 μM BHL alone) | inhibition at 1000 µM ([3]; read-out: % inhibition (1 mM), compound at 1 mM in the presence of 10 μM BHL, negative = agonism stronger than 10 μM BHL alone) | activation at 10 µM [5]
O=C(COc1ccc(I)cc1)NC1CCOC1=O (centres unmarked) [Compound E22, reference compound] | 11000 min | 2890 min | 606 min | 138 min | 23.9 µM | 96% | ~1.4 fold | more than 20% | 17.3 µM | 74% | – | – | – | – | –
O=C(NC1CCCC1)C1CCC1 [RN13] | – | – | – | – | – | – | – | – | 26.7 µM | 32% | maintained activity between the two different reporters | potent antagonist activity; also recorded: two-fold increased potency as measured by IC50 over parent compound RN4; also recorded: undesirable non-monotonic behavior | 24% | 25% | 0%
